# Tests used:
# [1] = molecular target: T1, Serine/threonine-protein kinase B-raf (Homo sapiens, UniProt P15056, V600E); assay: Inhibition of BRAF V600E mutant in human HT-29 cells assessed as phosphorylation of MEK; type: cell-based
# Homo sapiens = species on record: Homo sapiens; assay: Selectivity factor, ratio of IC50 for VEGFR2 (unknown origin) to IC50 for N-terminal FLAG-tagged recombinant BRAF-V600E (unknown origin) expressed in baculovirus system
# Mus musculus = assay: AUC (0 to 8 hrs) in mouse at 10 mg/kg, po; type: ADME, organism-based, Blood; design: time < 8 hr, dose 10 mg/kg, route oral; conditions: in vivo
# [2] = molecular target: T2, Vascular endothelial growth factor receptor 2 (Homo sapiens, UniProt P35968); assay: Inhibition of VEGFR2 (unknown origin)
# [3] = molecular target: T1, Serine/threonine-protein kinase B-raf; assay: Inhibition of BRAF V600E mutant (unknown origin)
# [4] = molecular target: T2, Vascular endothelial growth factor receptor 2; assay: Inhibition of VEGFR2 (unknown origin) using biotinylated poly-GluTyr (4:1) as substrate pretreated for 5 mins before substrate addition measured after overnight incubation
# [5] = molecular target: T1, Serine/threonine-protein kinase B-raf; assay: Inhibition of N-terminal FLAG-tagged recombinant BRAF V600E mutant (unknown origin) expressed in baculovirus system preincubated for 10 mins before substrate addition measured after 20 mins by scintillation counting
# T1 sequence (P15056 2-766 V600E limits assumed): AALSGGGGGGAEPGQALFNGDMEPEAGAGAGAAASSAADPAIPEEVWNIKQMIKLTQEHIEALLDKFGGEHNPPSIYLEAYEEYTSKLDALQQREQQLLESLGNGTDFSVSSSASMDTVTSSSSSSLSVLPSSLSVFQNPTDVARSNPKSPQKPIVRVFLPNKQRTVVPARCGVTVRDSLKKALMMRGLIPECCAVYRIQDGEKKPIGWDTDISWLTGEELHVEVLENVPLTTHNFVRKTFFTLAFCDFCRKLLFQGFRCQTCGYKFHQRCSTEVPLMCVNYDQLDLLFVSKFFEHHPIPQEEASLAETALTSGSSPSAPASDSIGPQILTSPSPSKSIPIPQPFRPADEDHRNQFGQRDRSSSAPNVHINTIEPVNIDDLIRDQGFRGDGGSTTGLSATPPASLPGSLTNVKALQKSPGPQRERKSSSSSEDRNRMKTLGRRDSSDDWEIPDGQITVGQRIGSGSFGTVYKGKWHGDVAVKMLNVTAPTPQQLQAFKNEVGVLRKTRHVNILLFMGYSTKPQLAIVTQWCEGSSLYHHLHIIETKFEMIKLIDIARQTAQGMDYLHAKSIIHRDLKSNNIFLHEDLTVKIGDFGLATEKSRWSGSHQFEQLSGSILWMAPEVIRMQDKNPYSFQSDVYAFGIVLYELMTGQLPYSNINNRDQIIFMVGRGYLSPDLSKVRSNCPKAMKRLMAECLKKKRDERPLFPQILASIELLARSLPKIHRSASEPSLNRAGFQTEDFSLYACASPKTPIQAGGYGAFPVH
# T2 sequence (P35968 whole entry): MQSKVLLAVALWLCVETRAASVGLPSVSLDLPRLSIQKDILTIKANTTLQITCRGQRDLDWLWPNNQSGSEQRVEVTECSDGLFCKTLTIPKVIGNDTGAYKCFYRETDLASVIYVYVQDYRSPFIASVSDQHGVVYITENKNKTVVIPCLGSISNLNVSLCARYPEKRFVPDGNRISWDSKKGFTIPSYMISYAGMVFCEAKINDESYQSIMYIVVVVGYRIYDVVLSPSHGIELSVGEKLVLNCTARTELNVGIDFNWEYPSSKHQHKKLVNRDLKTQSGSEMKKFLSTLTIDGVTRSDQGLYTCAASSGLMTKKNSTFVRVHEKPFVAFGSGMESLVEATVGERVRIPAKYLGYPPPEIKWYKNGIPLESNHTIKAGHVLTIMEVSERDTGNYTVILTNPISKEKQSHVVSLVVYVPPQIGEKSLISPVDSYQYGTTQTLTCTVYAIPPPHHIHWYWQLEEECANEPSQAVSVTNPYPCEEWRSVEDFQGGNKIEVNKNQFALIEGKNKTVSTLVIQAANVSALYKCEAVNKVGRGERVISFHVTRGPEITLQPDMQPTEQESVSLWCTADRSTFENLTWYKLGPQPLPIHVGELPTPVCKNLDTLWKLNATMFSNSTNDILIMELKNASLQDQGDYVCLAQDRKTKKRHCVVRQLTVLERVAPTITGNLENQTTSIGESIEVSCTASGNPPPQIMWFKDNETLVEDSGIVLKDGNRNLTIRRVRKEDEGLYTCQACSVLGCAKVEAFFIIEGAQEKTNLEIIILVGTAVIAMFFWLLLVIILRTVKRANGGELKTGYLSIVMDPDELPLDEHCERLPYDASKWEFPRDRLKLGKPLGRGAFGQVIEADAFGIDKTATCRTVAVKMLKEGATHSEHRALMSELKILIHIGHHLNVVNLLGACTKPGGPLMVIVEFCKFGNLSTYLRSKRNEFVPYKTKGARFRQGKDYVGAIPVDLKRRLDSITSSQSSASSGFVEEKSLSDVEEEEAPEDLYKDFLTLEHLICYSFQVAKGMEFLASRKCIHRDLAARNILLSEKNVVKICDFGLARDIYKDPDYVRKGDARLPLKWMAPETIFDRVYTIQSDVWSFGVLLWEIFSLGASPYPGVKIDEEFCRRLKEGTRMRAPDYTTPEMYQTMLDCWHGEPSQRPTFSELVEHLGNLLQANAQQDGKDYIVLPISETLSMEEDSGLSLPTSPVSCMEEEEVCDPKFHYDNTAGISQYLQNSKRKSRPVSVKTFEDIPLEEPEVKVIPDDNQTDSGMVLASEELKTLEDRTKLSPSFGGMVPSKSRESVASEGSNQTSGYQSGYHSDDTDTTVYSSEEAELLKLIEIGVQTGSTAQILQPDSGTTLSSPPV
Structure (SMILES),IC50 [1] [nM],Ratio IC50 (Homo sapiens),AUC (Mus musculus) [ng·h/mL],IC50 [2] [nM],IC50 [3] [nM],IC50 [4] [nM],IC50 [5] [nM]
N#Cc1c(Oc2ccc(F)c(NC(=O)Nc3ccc(C(F)(F)F)cc3)c2)ccc2nc(NC(=O)C3CC3)sc12,81,25,158,–,–,–,–
CC(C)(C#N)c1cccc(C(=O)Nc2cccc(Oc3ccc4nc(NC(=O)C5CC5)sc4c3)c2)c1,–,0.56,–,–,–,–,–
N#CC1(c2cccc(C(=O)Nc3cc(Oc4ccc5nc(NC(=O)C6CC6)sc5n4)ccc3F)c2Cl)CC1,–,–,–,2.8,5.6,–,–
CC(C)(C#N)c1cccc(C(=O)Nc2cccc(Oc3ccc4nc(NC(=O)C5CC5)sc4c3CO)c2)c1,170,0.31,–,–,–,–,–
CC(C)(C#N)c1cccc(C(=O)Nc2cccc(Oc3ccc4nc(NC(=O)C5CC5)sc4c3C(=O)O)c2)c1,–,0.051,–,–,–,15,290
N#Cc1c(Oc2cccc(NC(=O)Cc3ccccc3C(F)(F)F)c2)ccc2nc(NC(=O)C3CC3)sc12,> 500,7.1,255,–,–,–,–
CC(C)(C#N)c1cccc(C(=O)Nc2cccc(Oc3ccc4nc(NC(=O)C5CC5)sc4c3[N+](=O)[O-])c2)c1,29,2.8,–,–,–,–,–
N#Cc1c(Oc2ccc(F)c(NC(=O)Nc3cccc(C(F)(F)F)c3)c2)ccc2nc(NC(=O)C3CC3)sc12,22,15,–,–,–,–,–
COC(=O)c1c(Oc2cccc(NC(=O)c3cccc(C(C)(C)C#N)c3)c2)ccc2nc(NC(=O)C3CC3)sc12,24,2.8,–,–,–,–,–
N#Cc1c(Oc2cccc(NC(=O)Nc3ccccc3C(F)(F)F)c2)ccc2nc(NC(=O)C3CC3)sc12,> 500,6.3,58,–,–,–,–
N#Cc1c(Oc2cccc(NC(=O)Cc3ccc(C(F)(F)F)cc3)c2)ccc2nc(NC(=O)C3CC3)sc12,320,20,123,–,–,–,–
CC(C)(C#N)c1cccc(C(=O)Nc2cccc(Oc3ccc4nc(NC(=O)C5CC5)sc4c3C#N)c2)c1,34,5.8,149,–,–,–,–
N#Cc1c(Oc2cccc(NC(=O)Nc3cccc(C(F)(F)F)c3)c2)ccc2nc(NC(=O)C3CC3)sc12,75,19,99,–,–,350,18
N#Cc1c(Oc2cccc(NC(=O)Nc3ccc(C(F)(F)F)cc3)c2)ccc2nc(NC(=O)C3CC3)sc12,110,18,431,–,–,–,–
N#Cc1c(Oc2cccc(NC(=O)Cc3cccc(C(F)(F)F)c3)c2)ccc2nc(NC(=O)C3CC3)sc12,360,120,3780,–,–,–,–

# Reference: ChEMBL document CHEMBL3124815, “Discovery of a selective kinase inhibitor (TAK-632) targeting pan-RAF inhibition: design, synthesis, and biological evaluation of C-7-substituted 1,3-benzothiazole derivatives” (J Med Chem, 2013)
